How the values were obtained:
Assay type in all cases: cell-based
HepG2 = HepG2 toxicity; settings: Table 4
NIH 3T3 = NIH 3T3 toxicity; settings: Table 4
L. major Amastigotes = assay: Leishmania major amastigote assay; settings: read-out: L. major Amastigotes EC50; Table 4; r^2 values >0.75

With “6-(3-morpholinophenyl)-N-(1,2,4-triazin-3-yl)quinazolin-4-amine [9d]” the “HepG2 TC50” value (HepG2) was greater than 20 µM, the “NIH 3T3 TC50” value (NIH 3T3) was greater than 50 µM and the EC50 (L. major Amastigotes) was greater than 15 µM.
